This assay concerns the target T1, γ-secretase (Homo sapiens, UniProt P49768).
T1 construct: endogenous in cells; host or cells: SKNBE2 cells carrying APP 695 wild type
Put plainly: Screening for γ-secretase-modulating activity in SKNBE2 cells carrying the APP 695-wild type (assay per Citron et al 1997). The class given is cell-based. To be noted: SKNBE2 cells carrying APP 695-wild type. Here is the method: Screening of the Compounds of the Invention for γ-Secretase-Modulating Activity
Screening was carried out using SKNBE2 cells carrying the APP 695-wild type, grown in DMEM/NUT-mix F12 (HAM) provided by Gibco (cat no. 31330-38) containing 5% Serum/Fe supplemented with 1% non-essential amino acids.
Cells were grown to near confluency.
The screening was performed using the assay as described in Citron et al (1997) Nature Medicine 3: 67.

Drawing on patent US7968725B2, “Pyridinyl modulators of γ-secretase” (Janssen Pharmaceutica N.V., priority 2008, dated 2011), this text covers EC50 and inhibition for 33 compounds.

For `CC(C)CC(C(=O)O)c1cc(-c2ccc(C(F)(F)F)cc2)nc(-c2ccc(C(F)(F)F)cc2)c1` (stereo not drawn) [Example 1, 2-[2,6-Bis-(4-trifluoromethyl-phenyl)-pyridin-4-yl]-4-methyl-pentanoic acid], the 50% effective concentration (EC50) amounted to 0.26 µM. For the compound `CC(C)CC(C(=O)O)c1cc(-c2ccc(F)cc2)nc(-c2ccc(C(F)(F)F)cc2)c1` (stereo not drawn) [Example 2, 2-[2-(4-Fluoro-phenyl)-6-(4-trifluoromethyl-phenyl)-pyridin-4-yl]-4-methyl-pentanoic acid], 1 µM produced 28% inhibition. In turn, `CC(C)CC(C(=O)O)c1cc(-c2ccc(OC(F)(F)F)cc2)nc(-c2ccc(C(F)(F)F)cc2)c1` (stereo not drawn) [Example 3, 4-Methyl-2-[2-(4-trifluoromethoxy-phenyl)-6-(4-trifluoromethyl-phenyl)-pyridin-4-yl]-pentanoic acid] gave an EC50 of 0.38 µM. On to `COc1ccc(-c2cc(C(CC(C)C)C(=O)O)cc(-c3ccc(C(F)(F)F)cc3)n2)cc1` (stereo not drawn) [Example 4, 2-[2-(4-Methoxy-phenyl)-6-(4-trifluoromethyl-phenyl)-pyridin-4-yl]-4-methyl-pentanoic acid], for which the inhibition at 1 µM was found to be 1%.

On to `CC(C)CC(C(=O)O)c1cc(-c2ccc(C(F)(F)F)cc2)nc(-c2cc(C(F)(F)F)cc(C(F)(F)F)c2)c1` (stereo not drawn) [Example 6, 2-[2-(3,5-Bis-trifluoromethyl-phenyl)-6-(4-trifluoromethyl-phenyl)-pyridin-4-yl]-4-methyl-pentanoic acid], for which the EC50 was 0.27 µM. Same read-out and setting: as for `CC(C)CC(C(=O)O)c1cc(-c2ccc(C(F)(F)F)cc2)nc(-c2cnc3ccccc3c2)c1` (stereo not drawn) [Example 7, 4-Methyl-2-[2-quinolin-3-yl-6-(4-trifluoromethyl-phenyl)-pyridin-4-yl]-pentanoic acid], the figure is 0.67 µM; as for `CC(C)CC(C(=O)O)c1cc(-c2ccc(C(F)(F)F)cc2)nc(-c2cc(F)cc(C(F)(F)F)c2)c1` (stereo not drawn) [Example 8, 2-[2-(3-Fluoro-5-trifluoromethyl-phenyl)-6-(4-trifluoromethyl-phenyl)-pyridin-4-yl]-4-methyl-pentanoic acid], 0.12 µM. Take `CC(C)CC(C(=O)O)c1cc(-c2ccc(C(C)C)cc2)nc(-c2ccc(C(F)(F)F)cc2)c1` (stereo not drawn) [Example 9, 2-[2-(4-Isopropyl-phenyl)-6-(4-trifluoromethyl-phenyl)-pyridin-4-yl]-4-methyl-pentanoic acid]: the midpoint of the response, the EC50, lay at 0.73 µM. On the same count and under the same terms, as for `CC(C)CC(C(=O)O)c1cc(-c2ccc(C(F)(F)F)cc2)nc(-c2cc(F)cc(F)c2)c1` (stereo not drawn) [Example 10, 2-[2-(3,5-Difluoro-phenyl)-6-(4-trifluoromethyl-phenyl)-pyridin-4-yl]-4-methyl-pentanoic acid], the figure is 0.2 µM. In turn, `Cc1ccc(-c2cc(C(CC(C)C)C(=O)O)cc(-c3ccc(C(F)(F)F)cc3)n2)cc1` (stereo not drawn) [Example 11, 4-Methyl-2-[2-p-tolyl-6-(4-trifluoromethyl-phenyl)-pyridin-4-yl]-pentanoic acid] registered an inhibition at 1 µM of 0%.

For `CC(C)CC(C(=O)O)c1cc(-c2ccc(C(F)(F)F)cc2)nc(-c2cccc(C(F)(F)F)c2)c1` (stereo not drawn) [Example 12, 4-Methyl-2-[2-(3-trifluoromethyl-phenyl)-6-(4-trifluoromethyl-phenyl)-pyridin-4-yl]-pentanoic acid], the inhibition at 1 µM turned out to be 32%. In the case of `CC(C)CC(C(=O)O)c1cc(-c2ccc(-c3ccccc3)cc2)nc(-c2ccc(C(F)(F)F)cc2)c1` (stereo not drawn) [Example 13, 2-[2-Biphenyl-4-yl-6-(4-trifluoromethyl-phenyl)-pyridin-4-yl]-4-methyl-pentanoic acid], the inhibition at 1 µM worked out at 49%. The compound `CC(C)CC(C(=O)O)c1cc(-c2ccc(C(F)(F)F)cc2)nc(-c2ccc3ccccc3c2)c1` (stereo not drawn) [Example 14, 4-Methyl-2-[2-naphthalen-2-yl-6-(4-trifluoromethyl-phenyl)-pyridin-4-yl]-pentanoic acid] gave an inhibition at 1 µM of 34%. In the case of `C=C(C)CC(C(=O)O)c1cc(-c2ccc(C(F)(F)F)cc2)nc(-c2ccc3ccccc3c2)c1` (stereo not drawn) [Example 15, 4-Methyl-2-[2-naphthalen-2-yl-6-(4-trifluoromethyl-phenyl)-pyridin-4-yl]-pent-4-enoic acid], at 1 µM the inhibition was 19%. `C=C(C)CC(C(=O)O)c1cc(-c2ccc(C(F)(F)F)cc2)nc(-c2ccc(C(F)(F)F)cc2C(F)(F)F)c1` (stereo not drawn) [Example 16, 2-[2-(2,4-Bis-trifluoromethyl-phenyl)-6-(4-trifluoromethyl-phenyl)-pyridin-4-yl]-4-methyl-pent-4-enoic acid]: the inhibition at 1 µM is 23%.

In turn, `CC(C)CC(C(=O)O)c1cc(-c2ccc(C(F)(F)F)cc2)nc(-c2ccc(C(F)(F)F)cc2C(F)(F)F)c1` (stereo not drawn) [Example 17, 2-[2-(2,4-Bis-trifluoromethyl-phenyl)-6-(4-trifluoromethyl-phenyl)-pyridin-4-yl]-4-methyl-pentanoic acid] registered an inhibition at 1 µM of 64%.

Take `C=C(C)CC(C(=O)O)c1cc(-c2ccc(C(F)(F)F)cc2)nc(-c2cncc3ccccc23)c1` (stereo not drawn) [Example 18, 2-[2-Isoquinolin-4-yl-6-(4-trifluoromethyl-phenyl)-pyridin-4-yl]-4-methyl-pent-4-enoic acid]: the inhibition at 1 µM is 14%. On the same count and under the same terms, as for `CC(C)CC(C(=O)O)c1cc(-c2ccc(C(F)(F)F)cc2)nc(-c2cncc3ccccc23)c1` (stereo not drawn) [Example 19, 2-[2-Isoquinolin-4-yl-6-(4-trifluoromethyl-phenyl)-pyridin-4-yl]-4-methyl-pentanoic acid], the figure is 14%. In the case of `C=C(C)CC(C(=O)O)c1cc(-c2ccc(C(F)(F)F)cc2)nc(-c2cccc(F)c2F)c1` (stereo not drawn) [Example 20, 2-[2-(2,3-Difluoro-phenyl)-6-(4-trifluoromethyl-phenyl)-pyridin-4-yl]-4-methyl-pent-4-enoic acid], the inhibition at 1 µM amounted to 9%. The same measure, in the same setting: the same measure for `CC(C)CC(C(=O)O)c1cc(-c2ccc(C(F)(F)F)cc2)nc(-c2cccc(F)c2F)c1` (stereo not drawn) [Example 21, 2-[2-(2,3-Difluoro-phenyl)-6-(4-trifluoromethyl-phenyl)-pyridin-4-yl]-4-methyl-pentanoic acid]: 12%; for `CC(C)CC(C(=O)O)c1cc(-c2ccc(C(F)(F)F)cc2)nc(-c2ccc(F)cc2F)c1` (stereo not drawn) [Example 22, 2-[2-(2,4-Difluoro-phenyl)-6-(4-trifluoromethyl-phenyl)-pyridin-4-yl]-4-methyl-pentanoic acid]: 5%. Compound `C=C(C)CC(C(=O)O)c1cc(-c2ccc(C(F)(F)F)cc2)nc(-c2ccc(F)cc2F)c1` (stereo not drawn) [Example 23, 2-[2-(2,4-Difluoro-phenyl)-6-(4-trifluoromethyl-phenyl)-pyridin-4-yl]-4-methyl-pent-4-enoic acid] yielded an inhibition at 1 µM of 0%. `C=C(C)CC(C(=O)O)c1cc(-c2ccc(C(F)(F)F)cc2)nc(-c2cc(F)ccc2F)c1` (stereo not drawn) [Example 24, 2-[2-(2,5-Difluoro-phenyl)-6-(4-trifluoromethyl-phenyl)-pyridin-4-yl]-4-methyl-pent-4-enoic acid] had an inhibition at 1 µM of 22%. Same read-out and setting: as for `CC(C)CC(C(=O)O)c1cc(-c2ccc(C(F)(F)F)cc2)nc(-c2cc(F)ccc2F)c1` (stereo not drawn) [Example 25, 2-[2-(2,5-Difluoro-phenyl)-6-(4-trifluoromethyl-phenyl)-pyridin-4-yl]-4-methyl-pentanoic acid], the figure is 19%. On the same count and under the same terms, as for `CC(C)CC(C(=O)O)c1cc(-c2ccc(C(F)(F)F)cc2)nc(-c2c(F)cccc2F)c1` (stereo not drawn) [Example 26, 2-[2-(2,6-Difluoro-phenyl)-6-(4-trifluoromethyl-phenyl)-pyridin-4-yl]-4-methyl-pentanoic acid], the figure is 2%; as for `C=C(C)CC(C(=O)O)c1cc(-c2ccc(C(F)(F)F)cc2)nc(-c2c(F)cccc2F)c1` (stereo not drawn) [Example 27, 2-[2-(2,6-Difluoro-phenyl)-6-(4-trifluoromethyl-phenyl)-pyridin-4-yl]-4-methyl-pent-4-enoic acid], 5%. On the same count and under the same terms, the same measure for `C=C(C)CC(C(=O)O)c1cc(-c2ccc(C(F)(F)F)cc2)nc(-c2cc3ccccc3s2)c1` (stereo not drawn) [Example 28, 2-[2-Benzo[b]thiophen-2-yl-6-(4-trifluoromethyl-phenyl)-pyridin-4-yl]-4-methyl-pent-4-enoic acid]: 0%; for `CC(C)CC(C(=O)O)c1cc(-c2ccc(C(F)(F)F)cc2)nc(-c2cc3ccccc3s2)c1` (stereo not drawn) [Example 29, 2-[2-Benzo[b]thiophen-2-yl-6-(4-trifluoromethyl-phenyl)-pyridin-4-yl]-4-methyl-pentanoic acid]: 57%. In the case of `CC(C)CC(C(=O)O)c1cc(-c2ccc(C(F)(F)F)cc2)nc(-c2ccc(C(F)(F)F)nc2)c1` (stereo not drawn) [Example 30, 4-Methyl-2-[6′-trifluoromethyl-6-(4-trifluoromethyl-phenyl)-[2,3′]bipyridinyl-4-yl]-pentanoic acid], testing at 1 µM gave an inhibition of 0%.

Compound `C=C(C)CC(C(=O)O)c1cc(-c2ccc(C(F)(F)F)cc2)nc(-c2ccc(C(F)(F)F)nc2)c1` (stereo not drawn) [Example 31, 4-Methyl-2-[6′-trifluoromethyl-6-(4-trifluoromethyl-phenyl)-[2,3′]bipyridinyl-4-yl]-pent-4-enoic acid] showed an inhibition at 1 µM of 59%. The compound `C=C(C)CC(C(=O)O)c1cc(-c2ccc(C)cc2)nc(-c2ccc(C(F)(F)F)cc2)c1` (stereo not drawn) [Example 32, 4-Methyl-2-[2-p-tolyl-6-(4-trifluoromethyl-phenyl)-pyridin-4-yl]-pent-4-enoic acid] displayed an inhibition at 1 µM of 7%. On the same count and under the same terms, as for `CC(C)CC(C(=O)O)c1cc(-c2ccc(C(F)(F)F)cc2)nc(-c2ccc3c(c2)OCO3)c1` (stereo not drawn) [Example 33, 2-[2-Benzo[1,3]dioxol-5-yl-6-(4-trifluoromethyl-phenyl)-pyridin-4-yl]-4-methyl-pentanoic acid], the figure is 20%; as for `C=C(C)CC(C(=O)O)c1cc(-c2ccc(C(F)(F)F)cc2)nc(-c2cccc(-c3ccccc3)c2)c1` (stereo not drawn) [Example 34, 2-[2-Biphenyl-3-yl-6-(4-trifluoromethyl-phenyl)-pyridin-4-yl]-4-methyl-pent-4-enoic acid], 16%.
